From PMC5818190, “An allosteric binding site of the α7 nicotinic acetylcholine receptor revealed in a humanized acetylcholine-binding protein” (The Journal of Biological Chemistry, 2017)

Biological target: T1, human α7 nAChR (Homo sapiens, UniProt P36544)
T1 construct: gene CHRNA7; full-length receptor, cRNA from pMXT vector, Xenopus laevis oocytes; homomeric pentamer
Assay: two-electrode voltage clamp, Xenopus oocytes
Assay type: cell-based

T1 sequence (P36544 23-502): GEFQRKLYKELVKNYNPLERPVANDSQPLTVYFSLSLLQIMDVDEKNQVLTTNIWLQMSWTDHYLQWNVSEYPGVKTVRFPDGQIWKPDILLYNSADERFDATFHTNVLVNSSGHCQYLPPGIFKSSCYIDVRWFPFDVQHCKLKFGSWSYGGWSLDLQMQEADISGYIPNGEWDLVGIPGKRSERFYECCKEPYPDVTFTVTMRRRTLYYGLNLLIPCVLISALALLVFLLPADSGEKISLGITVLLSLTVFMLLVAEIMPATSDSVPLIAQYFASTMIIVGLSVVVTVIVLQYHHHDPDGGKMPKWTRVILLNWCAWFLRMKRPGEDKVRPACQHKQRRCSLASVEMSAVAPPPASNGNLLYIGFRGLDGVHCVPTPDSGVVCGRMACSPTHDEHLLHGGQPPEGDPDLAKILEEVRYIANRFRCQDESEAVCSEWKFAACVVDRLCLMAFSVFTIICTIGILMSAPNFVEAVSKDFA

SMILES: O=C(Nc1ccc(Br)cn1)[C@@H]1CCCNC1 [CU2017, N-(5-bromopyridin-2-yl)piperidine-3-carboxamide]
- IC50: 26.7 ± 1.6 µM
